The text below walks through data of patent US20110246078A1, “MITOCHONDRIA KATP ION CHANNEL AS A DRUG TARGET FOR PREVENTING LIVER DISEASES AND METHODS TO SCREEN MITOCHONDRIA KATP MODULATORS” (priority 2010, published 2011).

“Also recorded” adds a separate entry of the source.

For one assay, the system named is pinacidil induced DMR signal in HepG2C3A cells. The assay is described as follows: Label-free RWG biosensor DMR assay, modulation of the pinacidil induced DMR signal. The format is cell-based, human. The settings on record: pre-incubation with compound, pinacidil 40 μM. As for the experimental part: Transfection of siRNAs was performed using N-TER Nanoparticle siRNA Transfection System (Cat#N2913) from Sigma-Aldrich Inc. following the manufacturer's instructions. Briefly, 5000 cells were plated in each well of Epic 384-well plates. Cells were transfected with 50 nM siRNA the next day and incubated in siRNA containing medium for 24 hrs before replaced with fresh cell culture medium. Epic cell assay was performed 48 hours after transfection.
(§1) Epic® wavelength interrogation system (Corning Inc., Corning, N.Y.) was used for whole cell sensing. This system consists of a temperature-control unit, an optical detection unit, and an on-board liquid handling unit with robotics. The detection unit is centered on integrated fiber optics, and enables kinetic measures of cellular responses with a time interval of ˜15sec. The compound solutions were introduced by using the on-board liquid handling unit (i.e., pippetting).
The RWG biosensor is capable of detecting minute changes in local index of refraction near the sensor surface. Since the local index of refraction within a cell is a function of density and its distribution of biomass (e.g., proteins, molecular complexes), the biosensor exploits its evanescent wave to non-invasively detect ligand-induced dynamic mass redistribution in native cells. The evanescent wave extends into the cells and exponentially decays over distance, leading to a characteristic sensing volume of ˜150 nm, implying that any optical response mediated through the receptor activation only represents an average over the portion of the cell that the evanescent wave is sampling. The aggregation of many cellular events downstream the receptor activation determines the kinetics and amplitudes of a ligand-induced DMR.
For biosensor cellular assays, compound solutions were made by diluting the stored concentrated solutions with the HBSS (1× Hanks balanced salt solution, plus 20 mM Hepes, pH 7.1), and transferred into a 384well polypropylene compound storage plate to prepare a compound source plate. Two compound source plates were made separately when a two-step assay was performed. In parallel, the cells were washed twice with the HBSS and maintained in 30 μl of the HBSS to prepare a cell assay plate. Both the cell assay plate and the compound source plate(s) were then incubated in the hotel of the reader system. After incubation the baseline wavelengths of all biosensors in the cell assay microplate were recorded and normalized to zero. Afterwards, a 2 to 10 min continuous recording was carried out to establish a baseline, and to ensure that the cells reached a steady state. Cellular responses were then triggered by transferring 10 μl of the compound solutions into the cell assay plate using the on-board liquid handler.
All studies were carried out under controlled temperature (28° C.). At least two independent sets of experiments, each with at least three replicates, were performed.
Turning to `N#C/C(=C/c1ccc(O)c(O)c1)C(=O)NCc1ccccc1` [AG490], the “effect on the pinacidil induced DMR signal” value (“effect” for short) was “dose-dependently reduced”.

Regarding `C1CCC(N=C(NC23CC4CC(CC(C4)C2)C3)N2CCOCC2)CC1.Cl` [U-37883A], the “effect” value is “no effect”.

Take `C[C@@H](N)[C@H]1CC[C@H](C(=O)Nc2ccncc2)CC1` [Y-27632]: the “effect” value is listed as “reduced the pinacidil induced DMR signal dose-dependently”.

On to `C=C1[C@@H](C)[C@H]2[C@H](Cc3ccccc3)NC(=O)[C@]23OC(=O)/C=C/[C@H](O)CCC[C@@H](C)C/C=C/[C@H]3[C@@H]1O` [cytochalasin B], for which the “effect” value was “dose-dependently reduce”.

On to `C/C1=C/C(=O)O[C@@H]2C[C@@H](CC[C@H](C)/C=C\C=C\CC1)O[C@@](O)([C@@H]1CSC(=O)N1)C2` [latrunculin A], for which the “effect” value is given as “dose-dependently reduce”.

Take `CCCCNC(=O)NS(=O)(=O)c1ccc(C)cc1` [tobutamide]: the “effect” value was “dose-dependently inhibited”.

With `Cc1ccc(S(=O)(=O)NC(=O)NN2CCCCCC2)cc1` [tolazamide], the “effect” value is given as “dose-dependent inhibition; also recorded: dose-dependently inhibited”.

Another assay has as its system mito-KATP channels in HepG2C3A cells. The assay is described as follows: Label-free RWG biosensor (Epic) DMR cellular assay, agonism mode. The format is cell-based, human. The settings on record: 28° C.
Source text: as §1
The RWG biosensor is capable of detecting minute changes in local index of refraction near the sensor surface. Since the local index of refraction within a cell is a function of density and its distribution of biomass (e.g., proteins, molecular complexes), the biosensor exploits its evanescent wave to non-invasively detect ligand-induced dynamic mass redistribution in native cells. […]
For biosensor cellular assays, compound solutions were made by diluting the stored concentrated solutions with the HBSS (1× Hanks balanced salt solution, plus 20 mM Hepes, pH 7.1), and transferred into a 384well polypropylene compound storage plate to prepare a compound source plate. […] Both the cell assay plate and the compound source plate(s) were then incubated in the hotel of the reader system. After incubation the baseline wavelengths of all biosensors in the cell assay microplate were recorded and normalized to zero. […]
`CC(N/C(=N\C#N)Nc1ccncc1)C(C)(C)C` (centres unmarked) [pinacidil]: the “pinacidil induced DMR signal (amplitudes and kinetics)” value was “robust; also recorded: concentration dependent”.
